Experimental data: US10961196B2, “Compounds for use as an anti-bacterial or anti-fungal agent and as a zinc sensor” (UNIVERSITÄT KONSTANZ, priority 2016, dated 2021)
“And” between values parts separate entries of the source, which are not always exact repeats. Equal values may be shown once. Read-outs that look alike come from different tables or passages of the source.

Tests used:
B. subtilis = assay: Minimum inhibitory concentration (MIC), 96-well plates, serial dilutions in LB medium; format: cell-based; details: Bacillus subtilis, read-out: Minimum inhibitory concentration (MIC)
Description: (§1) Example 12: Determination of the Minimum Inhibitory Concentration (MIC) with Non-Pathogenic E. coli and B. subtilis and/or Pathogenic Strains of S. aureus Including Three MRSA Strains (USA 300, Mu50 and DSM18827) as Well as the Pathogenic Fungus Candida albicans
(§2) Minimum inhibitory concentrations (MIC) for compounds 1 to 11 with non-pathogenic E. coli and B. subtilis and/or pathogenic strains of S. aureus including three MRSA strains (USA 300, Mu50 and DSM18827) as well as the pathogenic fungus Candida albicans were determined in 96-well plates with serial dilutions in LB medium.

elastase (LasB) = elastase (LasB) (Pseudomonas aeruginosa, UniProt P14756); assay: In vitro elastase assay with fluorogenic substrate Abz-peptide-Nba; format: biochemical, P. aeruginosa
Sequence of elastase (LasB) (P14756 198-498): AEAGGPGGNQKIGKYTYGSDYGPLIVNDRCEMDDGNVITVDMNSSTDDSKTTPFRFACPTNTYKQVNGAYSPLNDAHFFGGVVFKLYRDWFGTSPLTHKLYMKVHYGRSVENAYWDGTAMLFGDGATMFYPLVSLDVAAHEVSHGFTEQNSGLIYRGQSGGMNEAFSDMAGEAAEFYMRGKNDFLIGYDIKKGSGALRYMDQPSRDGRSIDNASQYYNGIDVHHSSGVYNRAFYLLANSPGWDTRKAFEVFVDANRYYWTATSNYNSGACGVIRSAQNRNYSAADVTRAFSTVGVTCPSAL
Procedure: Example 16: In Vitro Inhibition of Elastase (LasB) with Compounds 6, 7, and 12
An in-vitro elastase assay was performed according to Cathcart et al. (G. R. Cathcart, B. F. Gilmore, B. Greer, P. Harriott, B. Walker, Bioorganic & medicinal chemistry letters 2009, 19, 6230-6232). For a typical in vitro elastase assay 82 μL buffer (0.05 M TRIS HCl, 2.5 mM CaCl2, pH=7.2) and 5 μL of compound 6 solved in DMSO were added in a 96 well plate. 10 μL of 3 μg/mL elastase (solved in the same Tris/CaCl2 buffer) were added and mixed with the compound. After incubation for 10 min at room temperature, 3 μL fluorogenic substrate Abz-peptide-Nba (2-aminobenzoyl-Ala-Gly-Leu-Ala-4-nitrobenzylamide) in DMF were added and the fluorescence measured for 90 min in one minute steps (excitation at 330 nm, emission at 460 nm). The slope of the resulting graph was used to calculate the enzymatic activity.

[1] = test system: developing neurons (LUHMES d2-3); assay: Toxicological testing with developing neurons in the LUHMES d2-3 assay; format: cell-based; details: 0-100 μM tested
Procedure: Example 14: Toxicological Testing with Developing Neurons in the LUHMES d2-3 Assay
Compounds 3, 5, and 10 were toxicologically tested with developing neurons in the LUHMES d2-3 assay at concentrations varying from 0 to 100 μM (cf. FIGS. 4 to 6). […] In the case of compound 5 (cf. FIG. 5), general cytotoxicity (orange line) and inhibition of neurite outgrowth each started above 40 μM (green line). For compound 10 (cf. FIG. 6), general cytotoxicity (orange line) started at 80 μM and inhibition of neurite outgrowth started at 40 μM (green line).

[2] = test system: S. aureus DSM18827 (MRSA); assay: Minimum inhibitory concentration (MIC), 96-well plates, serial dilutions in LB medium; format: cell-based; details: Staphylococcus aureus, DSM 11827 / DSM 18827 / MRSA; S. aureus DSM18827 (also printed DSM11827), MRSA, LB medium; read-out: Minimum inhibitory concentration (MIC)
Description: as §1, §2

S. aureus Mu50 (MRSA) [3] = assay: as above; format: cell-based; details: Staphylococcus aureus; S. aureus Mu50 (MRSA), LB medium; read-out: Minimum inhibitory concentration (MIC)
Description: as §1, §2

S. aureus NCTC 8325 = assay: as above; format: cell-based; details: Staphylococcus aureus
Description: as §1, §2

S. aureus USA 300 (MRSA) = assay: as above; format: cell-based; details: Staphylococcus aureus; S. aureus USA 300 (MRSA), LB medium; read-out: Minimum inhibitory concentration (MIC)
Description: as §1, §2
Example 21: Determination of the Minimum Inhibitory Concentration (MIC) for the Compounds Represented by the Formulas (14) and (16) with the Pathogenic USA 300 (MRSA) Strain of S. aureus
Minimum inhibitory concentrations (MIC) for the compounds represented by the Formulas (14) and (16) with the pathogenic MRSA strains of S. aureus USA 300 were determined in 96-well plates with serial dilutions in LB medium.

E. coli K12 = assay: as above; format: cell-based; details: Escherichia coli
Description: as §1, §2

S. aureus Mu50 (MRSA) [4] = details: comparison values; cited from earlier work
[5] = NCTC8325, S. aureus NCTC 8325, LB medium, read-out: Minimum inhibitory concentration (MIC)

| SMILES | MIC [2] | MIC (S. aureus Mu50 (MRSA) [3]) | MIC (S. aureus NCTC 8325; [5]) | MIC (S. aureus USA 300 (MRSA)) | other results |
| --- | --- | --- | --- | --- | --- |
| CCCCCCCc1cc(=O)c2ccccc2[te]1 [Compound 2, 2-heptyl-4H-tellurochromen-4-one] |  |  |  |  | MIC (B. subtilis): 100 µM to 250 µM and 36 µg/mL to 89 µg/mL |
| CCCCCCCc1sc2ccccc2c(=S)c1O [Compound 12, 2-heptyl-3-hydroxy-4H-thiochromene-4-thione] |  |  |  |  | IC50 (elastase (LasB)): 2000 nM |
| CCCCc1sc2ccccc2c(=O)c1O [Compound 10, 3-hydroxy-2-butyl-thiochromen-4-one] | 50 µM and 11.7 µg/mL | 50 µM and 11.7 µg/mL | 50 µM and 11.7 µg/mL | 50 µM and 11.7 µg/mL | Concentration at which general cytotoxicity starts [1]: 80 µM; Concentration at which inhibition of neurite outgrowth starts [1]: 40 µM |
| CCCCCCCc1cc(=O)c2ccccc2[nH]1 [Compound 1, 2-heptyl-4-quinolone, reference compound] |  |  |  |  | MIC (E. coli K12): > 1000 µM and > 243 µg/mL; MIC (B. subtilis): > 1000 µM and > 243 µg/mL; MIC (S. aureus NCTC 8325; NCTC8325, read-out: Minimum inhibitory concentration (MIC)): > 1000 µM and > 243 µg/mL |
| CC1(C)S[C@@H]2[C@H](NC(=O)[C@H](N)c3ccccc3)C(=O)N2[C@H]1C(=O)O [ampicillin] |  |  |  |  | MIC of known antibiotics (S. aureus Mu50 (MRSA) [4]): 37 µg/mL |
| CCCCCCCc1sc2ccc(F)cc2c(=O)c1O [Compound 11, 6-fluoro-2-heptyl-3-hydroxy-4H-thiochromen-4-one] | 40 µM and 11.8 µg/mL | 40 µM and 11.8 µg/mL | 35 µM and 10.3 µg/mL | 35 µM and 10.3 µg/mL |  |
| O=C(O)c1cn(C2CC2)c2cc(N3CCNCC3)c(F)cc2c1=O [ciprofloxacin] |  |  |  |  | MIC of known antibiotics (S. aureus Mu50 (MRSA) [4]): 66 µg/mL |
| CCCCCCCc1oc2ccccc2c(=S)c1O [Compound 7, 2-heptyl-3-hydroxy-4H-chromene-4-thione] | 72.5 µM and 20 µg/mL | 50 µM and 13.8 µg/mL | 60 µM and 16.6 µg/mL | 60 µM and 16.6 µg/mL | IC50 (elastase (LasB)): 2000 nM |
